Literature values, collected in patent US20100111883A1, “CYCLODEXTRIN FORMULATIONS” (priority 2007, published 2010).

Experiments:
[1] = HPBCD alone, through the skin; stated as typical

CC(O)COC[C@H]1O[C@@H]2O[C@H]3[C@H](O)[C@@H](O)[C@@H](O[C@H]4[C@H](O)[C@@H](O)[C@@H](O[C@H]5[C@H](O)[C@@H](O)[C@@H](O[C@H]6[C@H](O)[C@@H](O)[C@@H](O[C@H]7[C@H](O)[C@@H](O)[C@@H](O[C@H]8[C@H](O)[C@@H](O)[C@@H](O[C@H]1[C@H](O)[C@H]2O)O[C@@H]8COCC(C)O)O[C@@H]7COCC(C)O)O[C@@H]6COCC(C)O)O[C@@H]5COCC(C)O)O[C@@H]4COCC(C)O)O[C@@H]3COCC(C)O (stereo partly drawn) [HPBCD, β-cyclodextrin, 2-hydroxypropyl ether]
skin penetration [1]: about 0.1%
water solubility: freely water soluble
